{
  "source": "patent US20080109040A1",
  "about": "“METHOD OF TREATING ARRHYTHMIAS” (priority 2002, published 2008)",
  "system": "arterially perfused canine left ventricular wedge preparation",
  "experiment": "Action potential and ECG studies in arterially-perfused canine left ventricular wedge preparations",
  "set-up": "APD90 ± SE, M region / TDR / APD50 ± SE, M region / QTend: unit not given beside the values",
  "settings": "for APD50 ± SE, Epicardium / APD50 ± SE, M region / APD90 ± SE, Epicardium / APD90 ± SE, M region / QTend / TDR / Tpeak-Tend: BCL = 2000; for Ranolazine-induced Torsade de Pointes, Spontaneous / Ranolazine-induced Torsade de Pointes, Stimulation-induced: ranolazine 1-100 μM",
  "experimental": "Transmural left ventricular wedges with dimensions of approximately 12 mm×35 mm×12 mm were dissected from the mid-to-basal anterior region of the left ventricular wall and a diagonal branch of the left anterior descending coronary artery was cannulated to deliver the perfusate (Tyrode's solution). The composition of the Tyrode's solution was (in mM): […] A separate set of experiments were performed using Tyrode's solution containing 2 mM KCl. Transmembrane action potentials were recorded from epicardial (EPI) and Subendocardial regions (M) using floating microelectrodes. A transmural pseudo-electrocardiogram (ECG) was recorded using two K-Agar electrodes (1.1 mm, i.d.) placed at approx. 1 cm. from the epicardial (+) and endocardial (−) surfaces of the preparation and along the same axis as the transmembrane recordings. […] A constant flow rate was set before ischemia to reach a perfusion pressure of 40-50 mmHg. The temperature was maintained at 37±0.5° C. by heating the perfusate and a contiguous water-chamber that surrounded the tissue-chamber with the same heater/circulating bath. The top-uncovered part of the tissue-chamber was covered in each experiment to 75% of its surface with plastic sheets to further prevent heat loss; the remainder 25% was kept uncovered to position and maneuver the ECG electrodes and the floating microelectrodes. The preparations were fully immersed in the extracellular solution throughout the course of the experiment. The QT interval was defined as the time interval between the initial deflection of the QRS complex and the point at which a tangent drawn to the steepest portion of the terminal part of the T wave crossed the isoelectric line. Experimental Series 1: […] [K^+]o=4 mM. a. Steady-state stimulation: […] b. Programmed electrical stimulation (PES): Premature stimulation was applied to the epicardial surface before and after each concentration of drug in an attempt to induce arrhythmias. Single pulses (S2) were delivered once after every fifth or tenth basic beat (S1) at cycle lengths of 2000 msec. […] Experimental Series 2: […] [K^+]o=2 mM.",
  "data": [
    {"smiles": "COc1ccccc1OCC(O)CN1CCN(CC(=O)Nc2c(C)cccc2C)CC1", "note": "(racemic) [ranolazine, N-(2,6-dimethylphenyl)-4-[2-hydroxy-3-(2-methoxyphenoxy)propyl]-1-piperazineacetamide]", "values": [
      {"measurement": "APD50 ± SE, Epicardium", "setting": "1 μM, 2 mM [KCl]0", "result": "173 ± 2"},
      {"measurement": "APD50 ± SE, M region", "setting": "1 μM, 2 mM [KCl]0", "result": "210.7 ± 13.53"},
      {"measurement": "APD90 ± SE, Epicardium", "setting": "1 μM, 2 mM [KCl]0", "result": "232 ± 5.508"},
      {"measurement": "APD90 ± SE, M region", "setting": "1 μM, 2 mM [KCl]0", "result": "280.3 ± 12.72"},
      {"measurement": "QTend", "setting": "1 μM, 2 mM [KCl]0", "result": "311 ± 9.5"},
      {"measurement": "TDR", "setting": "1 μM, 2 mM [KCl]0", "result": "28.33 ± 11.46"},
      {"measurement": "Tpeak-Tend", "setting": "1 μM, 2 mM [KCl]0", "result": "35 ± 4.70"},
      {"measurement": "APD50 ± SE, Epicardium", "setting": "1 μM, 4 mM [KCl]0", "result": "176.3 ± 12.25"},
      {"measurement": "APD50 ± SE, M region", "setting": "1 μM, 4 mM [KCl]0", "result": "203.3 ± 9.621"},
      {"measurement": "APD90 ± SE, Epicardium", "setting": "1 μM, 4 mM [KCl]0", "result": "213.8 ± 13.28"},
      {"measurement": "APD90 ± SE, M region", "setting": "1 μM, 4 mM [KCl]0", "result": "254.3 ± 9.15"},
      {"measurement": "QTend", "setting": "1 μM, 4 mM [KCl]0", "result": "263.5 ± 10.56"},
      {"measurement": "TDR", "setting": "1 μM, 4 mM [KCl]0", "result": "26.75 ± 8.045"},
      {"measurement": "Tpeak-Tend", "setting": "1 μM, 4 mM [KCl]0", "result": "34.5 ± 3.202"},
      {"measurement": "APD50 ± SE, Epicardium", "setting": "5 μM, 2 mM [KCl]0", "result": "183.5 ± 1.5"},
      {"measurement": "APD50 ± SE, M region", "setting": "5 μM, 2 mM [KCl]0", "result": "205.7 ± 7.881"},
      {"measurement": "APD90 ± SE, Epicardium", "setting": "5 μM, 2 mM [KCl]0", "result": "252.5 ± 10.5"},
      {"measurement": "APD90 ± SE, M region", "setting": "5 μM, 2 mM [KCl]0", "result": "289.7 ± 2.848"},
      {"measurement": "QTend", "setting": "5 μM, 2 mM [KCl]0", "result": "319 ± 4.58"},
      {"measurement": "TDR", "setting": "5 μM, 2 mM [KCl]0", "result": "15 ± 7"},
      {"measurement": "Tpeak-Tend", "setting": "5 μM, 2 mM [KCl]0", "result": "33 ± 1.33"},
      {"measurement": "APD50 ± SE, Epicardium", "setting": "5 μM, 4 mM [KCl]0", "result": "176.5 ± 11.85"},
      {"measurement": "APD50 ± SE, M region", "setting": "5 μM, 4 mM [KCl]0", "result": "207.5 ± 8.627"},
      {"measurement": "APD90 ± SE, Epicardium", "setting": "5 μM, 4 mM [KCl]0", "result": "219 ± 12.12"},
      {"measurement": "APD90 ± SE, M region", "setting": "5 μM, 4 mM [KCl]0", "result": "258.3 ± 11.08"},
      {"measurement": "QTend", "setting": "5 μM, 4 mM [KCl]0", "result": "274.5 ± 13.73"},
      {"measurement": "TDR", "setting": "5 μM, 4 mM [KCl]0", "result": "36 ± 2.449"},
      {"measurement": "Tpeak-Tend", "setting": "5 μM, 4 mM [KCl]0", "result": "37.75 ± 4.09"},
      {"measurement": "APD50 ± SE, Epicardium", "setting": "10 μM, 2 mM [KCl]0", "result": "190 ± 2"},
      {"measurement": "APD50 ± SE, M region", "setting": "10 μM, 2 mM [KCl]0", "result": "208.3 ± 3.48"},
      {"measurement": "APD90 ± SE, Epicardium", "setting": "10 μM, 2 mM [KCl]0", "result": "265.5 ± 16.5"},
      {"measurement": "APD90 ± SE, M region", "setting": "10 μM, 2 mM [KCl]0", "result": "305.3 ± 4.978"},
      {"measurement": "QTend", "setting": "10 μM, 2 mM [KCl]0", "result": "329 ± 2.33"},
      {"measurement": "TDR", "setting": "10 μM, 2 mM [KCl]0", "result": "23.5 ± 1.5"},
      {"measurement": "Tpeak-Tend", "setting": "10 μM, 2 mM [KCl]0", "result": "36 ± 4.09"},
      {"measurement": "APD50 ± SE, Epicardium", "setting": "10 μM, 4 mM [KCl]0", "result": "170.5 ± 12.03"},
      {"measurement": "APD50 ± SE, M region", "setting": "10 μM, 4 mM [KCl]0", "result": "199 ± 9.083"},
      {"measurement": "APD90 ± SE, Epicardium", "setting": "10 μM, 4 mM [KCl]0", "result": "216.5 ± 13.41"},
      {"measurement": "APD90 ± SE, M region", "setting": "10 μM, 4 mM [KCl]0", "result": "260.3 ± 12.66"},
      {"measurement": "QTend", "setting": "10 μM, 4 mM [KCl]0", "result": "277.8 ± 14.99"},
      {"measurement": "TDR", "setting": "10 μM, 4 mM [KCl]0", "result": "30.75 ± 10.46"},
      {"measurement": "Tpeak-Tend", "setting": "10 μM, 4 mM [KCl]0", "result": "39.25 ± 5.54"},
      {"measurement": "APD50 ± SE, Epicardium", "setting": "50 μM, 2 mM [KCl]0", "result": "179 ± 1"},
      {"measurement": "APD50 ± SE, M region", "setting": "50 μM, 2 mM [KCl]0", "result": "214.3 ± 6.333"},
      {"measurement": "APD90 ± SE, Epicardium", "setting": "50 μM, 2 mM [KCl]0", "result": "276.5 ± 18.5"},
      {"measurement": "APD90 ± SE, M region", "setting": "50 μM, 2 mM [KCl]0", "result": "325.5 ± 5.5"},
      {"measurement": "QTend", "setting": "50 μM, 2 mM [KCl]0", "result": "343 ± 2.84"},
      {"measurement": "TDR", "setting": "50 μM, 2 mM [KCl]0", "result": "35.5 ± 3.5"},
      {"measurement": "Tpeak-Tend", "setting": "50 μM, 2 mM [KCl]0", "result": "41 ± 6.35"},
      {"measurement": "APD50 ± SE, Epicardium", "setting": "50 μM, 4 mM [KCl]0", "result": "159.5 ± 12.82"},
      {"measurement": "APD50 ± SE, M region", "setting": "50 μM, 4 mM [KCl]0", "result": "187.8 ± 11.21"},
      {"measurement": "APD90 ± SE, Epicardium", "setting": "50 μM, 4 mM [KCl]0", "result": "218 ± 15.91"},
      {"measurement": "APD90 ± SE, M region", "setting": "50 μM, 4 mM [KCl]0", "result": "257.5 ± 15.47"},
      {"measurement": "QTend", "setting": "50 μM, 4 mM [KCl]0", "result": "279.3 ± 17.21"},
      {"measurement": "TDR", "setting": "50 μM, 4 mM [KCl]0", "result": "32.5 ± 6.278"},
      {"measurement": "Tpeak-Tend", "setting": "50 μM, 4 mM [KCl]0", "result": "41.25 ± 8.37"},
      {"measurement": "APD50 ± SE, Epicardium", "setting": "100 μM, 2 mM [KCl]0", "result": "167.5 ± 0.5"},
      {"measurement": "APD50 ± SE, M region", "setting": "100 μM, 2 mM [KCl]0", "result": "187.7 ± 4.978"},
      {"measurement": "APD90 ± SE, Epicardium", "setting": "100 μM, 2 mM [KCl]0", "result": "293.5 ± 21.5"},
      {"measurement": "APD90 ± SE, M region", "setting": "100 μM, 2 mM [KCl]0", "result": "345 ± 14.36"},
      {"measurement": "QTend", "setting": "100 μM, 2 mM [KCl]0", "result": "376 ± 4.48"},
      {"measurement": "TDR", "setting": "100 μM, 2 mM [KCl]0", "result": "35 ± 11"},
      {"measurement": "Tpeak-Tend", "setting": "100 μM, 2 mM [KCl]0", "result": "55 ± 1.00"},
      {"measurement": "APD50 ± SE, Epicardium", "setting": "100 μM, 4 mM [KCl]0", "result": "152.5 ± 14.44"},
      {"measurement": "APD50 ± SE, M region", "setting": "100 μM, 4 mM [KCl]0", "result": "169 ± 10.5"},
      {"measurement": "APD90 ± SE, Epicardium", "setting": "100 μM, 4 mM [KCl]0", "result": "220.5 ± 18.26"},
      {"measurement": "APD90 ± SE, M region", "setting": "100 μM, 4 mM [KCl]0", "result": "247.8 ± 15.32"},
      {"measurement": "QTend", "setting": "100 μM, 4 mM [KCl]0", "result": "284.5 ± 14.39"},
      {"measurement": "TDR", "setting": "100 μM, 4 mM [KCl]0", "result": "23.75 ± 2.689"},
      {"measurement": "Tpeak-Tend", "setting": "100 μM, 4 mM [KCl]0", "result": "40.5 ± 4.94"},
      {"measurement": "Arrhythmias in the wedge preparation", "setting": "any concentration of ranolazine", "result": "No arrhythmias were observed"},
      {"measurement": "Ranolazine-induced Torsade de Pointes, Spontaneous", "setting": "2 mM [K+]0", "result": "0/3"},
      {"measurement": "Ranolazine-induced Torsade de Pointes, Stimulation-induced", "setting": "2 mM [K+]0", "result": "0/3"},
      {"measurement": "Ranolazine-induced Torsade de Pointes, Spontaneous", "setting": "4 mM [K+]0", "result": "0/4"},
      {"measurement": "Ranolazine-induced Torsade de Pointes, Stimulation-induced", "setting": "4 mM [K+]0", "result": "0/4"},
      {"measurement": "Early or delayed afterdepolarizations", "setting": "tissue or wedge preparations, any concentration of ranolazine", "result": "Neither early nor delayed afterdepolarizations were observed"}
    ]}
  ]
}
